US20060089390A1, “3-benzoyl-2,4,5-substituted pyridine derivatives or salts thereof and bactericides containing the same” (Ishihara Sangyo Kaisha, Ltd., priority 2002, published 2006)
Read-outs that look alike come from different tables or passages of the source.

Key:
wheat powdery mildew = assay: Test on preventive effect against wheat powdery mildew; assay type: in vivo, Wheat (cultivar: Norin-61-go); conditions: Triticum aestivum, foliar spray before inoculation, examined 6 to 8 days after inoculation, read-out: controlling effects as compared with non-treated cases (area of sporogony)
Experimental: Tests on Preventive Effect Against Wheat Powdery Mildew Wheat (cultivar: […] After the drug solution dried, the wheat was inoculated by spreading with conidiospore of fungi of powdery mildew, and the wheat was kept in a thermostatic chamber at 20° C. From 6 to 8 days after the inoculation, the area of sporogony was examined.

cucumber powdery mildew [1] = assay: Test on preventive effect against cucumber powdery mildew; assay type: in vivo, Cucumber (cultivar: Suyo); conditions: Cucumis sativus, foliar spray before inoculation, examined 6 to 11 days after inoculation, read-out: controlling effects as compared with non-treated cases (area of sporogony)
Experimental: Test on Preventive Effect Against Cucumber Powdery Mildew Cucumber (cultivar: […] After the drug solution dried, the cucumber was sprayed and inoculated with a conidiospore suspension of fungi of powdery mildew, and the cucumber was kept in a thermostatic chamber at 20° C. From 6 to 11 days after the inoculation, the area of sporogony was examined.

rice blast = assay: whole plant or invertebrate; assay type: in vivo, Rice (cultivar: Nihonbare); conditions: Pyricularia oryzae, foliar, read-out: controlling effects as compared with non-treated cases (number of lesions)
cucumber powdery mildew [2] = assay: Test on rainfastness of effect against cucumber powdery mildew; assay type: in vivo, Cucumber (cultivar: Suyo); conditions: Cucumis sativus, topical, 500 gai/ha
Experimental: Cucumber (cultivar: […] A day after the treatment, 10 mm/hr of artificial rainfall was applied for 1 hour. Together with seedlings not subjected to rainfall treatment (preventive), the cucumber was sprayed and inoculated with a conidiospore suspension of fungi of powdery mildew, and the cucumber was kept in a thermostatic chamber at 20° C. From 6 to 11 days after the inoculation, the number of lesions was examined, and the controlling rate was calculated by comparison with the non-treated cases. The results are shown in Table 5.

[3] = 10 mm/hr artificial rainfall for 1 hour a day after treatment, read-out: Controlling rate of cucumber powdery mildew (%) Rainfall
[4] = no rainfall treatment (preventive), read-out: Controlling rate of cucumber powdery mildew (%) Preventive

SMILES | melting point | pest or weed control at 125 ppm (wheat powdery mildew) | pest or weed control at 125 ppm (cucumber powdery mildew [1]) | pest or weed control at 500 ppm (rice blast) | pest or weed control at 500 g/ha (cucumber powdery mildew [2]; [3]) | pest or weed control at 500 g/ha (cucumber powdery mildew [2]; [4])
COc1cc(C)c(C(=O)c2c(F)ncc(C)c2I)c(OC)c1OC [1-18, 3-(2,3,4-trimethoxy-6-methylbenzoyl)-2-fluoro-4-iodo-5-methylpyridine] | 140 to 141 °C | ≥ 90% | – | – | – | –
COc1cc(C)c(C(=O)c2c(OC)ncc(Br)c2Cl)c(OC)c1OC [1-23, 3-(2,3,4-trimethoxy-6-methylbenzoyl)-5-bromo-4-chloro-2-methoxypyridine] | – | ≥ 90% | ≥ 90% | ≥ 90% | 100% | 100%
COc1cc(C)c(C(=O)c2c(OC)cnc(Br)c2C)c(OC)c1OC [2-3, 4-(2,3,4-trimethoxy-6-methylbenzoyl)-2-bromo-5-methoxy-3-methylpyridine, reference compound] | – | ≥ 90% | ≥ 90% | ≥ 90% | 0% | 100%
COc1cc(C)c(C(=O)c2c(OC)ncc(Cl)c2OC)c(OC)c1OC [1-11, 3-(2,3,4-trimethoxy-6-methylbenzoyl)-5-chloro-2,4-dimethoxypyridine] | 93 to 94 °C | ≥ 90% | ≥ 90% | – | – | –
COc1cc(C)c(C(=O)c2c(OC)ncc(Cl)c2Br)c(OC)c1OC [Compound No. 1-1, 3-(2,3,4-trimethoxy-6-methylbenzoyl)-4-bromo-5-chloro-2-methoxypyridine] | 92 to 94 °C | ≥ 90% | ≥ 90% | ≥ 90% | 100% | 100%
COc1cc(C)c(C(=O)c2c(F)ncc(C)c2C)c(OC)c1OC [1-19, 3-(2,3,4-trimethoxy-6-methylbenzoyl)-2-fluoro-4,5-dimethylpyridine] | 91 to 92 °C | ≥ 90% | – | – | – | –
COc1cc(C)c(C(=O)c2c(OC)ncc(C)c2C)c(OC)c1OC [1-20, 3-(2,3,4-trimethoxy-6-methylbenzoyl)-2-methoxy-4,5-dimethylpyridine] | 84 to 86 °C | ≥ 90% | – | – | – | –
COc1cc(C)c(C(=O)c2c(Cl)ncc(C)c2Cl)c(OC)c1OC [1-16, 3-(2,3,4-trimethoxy-6-methylbenzoyl)-2,4-dichloro-5-methylpyridine] | 78 to 80 °C | ≥ 90% | ≥ 90% | ≥ 90% | – | –
COc1cc(C)c(C(=O)c2c(Cl)ncc(I)c2Cl)c(OC)c1OC [1-17, 3-(2,3,4-trimethoxy-6-methylbenzoyl)-2,4-dichloro-5-iodopyridine] | – | ≥ 90% | – | ≥ 90% | – | –
COc1cc(C)c(C(=O)c2c(OC)ncc(Cl)c2Cl)c(OC)c1OC [Compound No. 1-15, 3-(2,3,4-trimethoxy-6-methylbenzoyl)-4,5-dichloro-2-methoxypyridine] | 84 to 86 °C | ≥ 90% | ≥ 90% | ≥ 90% | 100% | 100%
COc1cc(C)c(C(=O)c2c(OC)ncc(C)c2Cl)c(OC)c1OC [1-24, 3-(2,3,4-trimethoxy-6-methylbenzoyl)-4-chloro-2-methoxy-5-methylpyridine] | – | ≥ 90% | ≥ 90% | ≥ 90% | 85% | 100%
CCc1c(Cl)cnc(OC)c1C(=O)c1c(C)cc(OC)c(OC)c1OC [1-2, 3-(2,3,4-trimethoxy-6-methylbenzoyl)-5-chloro-4-ethyl-2-methoxypyridine] | – | ≥ 90% | ≥ 90% | ≥ 90% | – | –
COc1cc(C)c(C(=O)c2c(OC)ncc(Cl)c2C)c(OC)c1OC [Compound No. 1-35, 3-(2,3,4-trimethoxy-6-methylbenzoyl)-5-chloro-2-methoxy-4-methylpyridine] | – | ≥ 90% | ≥ 90% | ≥ 90% | 100% | 100%
COc1cc(C)c(C(=O)c2c(OC)cnc(Cl)c2Cl)c(OC)c1OC [2-6, 4-(2,3,4-trimethoxy-6-methylbenzoyl)-2,3-dichloro-5-methoxypyridine, reference compound] | – | ≥ 90% | ≥ 90% | – | 0% | 90%
COc1cc(C)c(C(=O)c2c(SC)ncc(C)c2C)c(OC)c1OC [1-22, 3-(2,3,4-trimethoxy-6-methylbenzoyl)-4,5-dimethyl-2-methylthiopyridine] | – | ≥ 90% | ≥ 90% | ≥ 90% | – | –
COc1cc(C)c(C(=O)c2c(OC)ncc(Br)c2C(F)(F)F)c(OC)c1OC [1-14, 3-(2,3,4-trimethoxy-6-methylbenzoyl)-5-bromo-4-trifluoromethyl-2-methoxypyridine] | – | ≥ 90% | ≥ 90% | – | 100% | 100%
